pIC50: −log10 of the molar value.
What was measured:
BL-41 = assay: cells; type: functional, cell-based; settings: Homo sapiens;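 further: growth inhibition of human BL-41 cells, read out with a cell viability assay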
Description: SANGER: Inhibition of human BL-41 cell growth in a cell viability assay.

IM-9 = assay: SANGER: Inhibition of human IM-9 cell growth in a cell viability assay.; type: functional, cell-based
SNG-M = assay: cells; type: functional, cell-based; settings: Homo sapiens
Description: SANGER: Inhibition of human SNG-M cell growth in a cell viability assay.

PLC-PRF-5 = assay: cells; type: functional, cell-based; settings: Homo sapiens;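 further: growth inhibition of human PLC-PRF-5 cells, read out with a viability assay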
Description: SANGER: Inhibition of human PLC-PRF-5 cell growth in a cell viability assay.

SIMA = assay: cells; type: functional, cell-based, Homo sapiens; settings: Homo sapiens, SIMA;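 further: growth inhibition of SIMA cells, measured with a cell viability readout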
Description: SANGER: Inhibition of human SIMA cell growth in a cell viability assay.

EFE-184 = assay: cells; type: functional, cell-based; settings: Homo sapiens
Description: SANGER: Inhibition of human EFE-184 cell growth in a cell viability assay.

NCI-H1618 = assay: cells; type: functional, cell-based; settings: Homo sapiens;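 further: growth inhibition of human NCI-H1618 cells, measured by a cell viability assay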
Description: SANGER: Inhibition of human NCI-H1618 cell growth in a cell viability assay.

CAL-148 = assay: cells; type: functional, cell-based; settings: Homo sapiens
Description: SANGER: Inhibition of human CAL-148 cell growth in a cell viability assay.

NCI-H345 = assay: cells; type: functional, cell-based; settings: Homo sapiens;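 further: growth inhibition of NCI-H345 cells measured with a cell viability assay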
Description: SANGER: Inhibition of human NCI-H345 cell growth in a cell viability assay.

RT-4 = assay: SANGER: Inhibition of human RT4 cell growth in a cell viability assay.; type: functional, cell-based; settings: Homo sapiens, RT-4
Calu-1 = assay: SANGER: Inhibition of human Calu-1 cell growth in a cell viability assay.; type: functional, cell-based
NCI-H187 = assay: cells; type: functional, cell-based; settings: Homo sapiens;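 further: growth inhibition of NCI-H187 cells, read out as cell viability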
Description: SANGER: Inhibition of human NCI-H187 cell growth in a cell viability assay.

NCI-H716 = assay: cells; type: functional, cell-based; settings: Homo sapiens;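 further: growth inhibition of human NCI-H716 cells, measured by a cell viability assay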
Description: SANGER: Inhibition of human NCI-H716 cell growth in a cell viability assay.

CHP-126 = assay: cells; type: functional, cell-based; settings: Homo sapiens
Description: SANGER: Inhibition of human CHP-126 cell growth in a cell viability assay.

LB647-SCLC = assay: cells; type: functional, cell-based; settings: Homo sapiens;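 further: cell growth inhibition, read out by a viability assay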
Description: SANGER: Inhibition of human LB647-SCLC cell growth in a cell viability assay.

ECC12 = assay: cells; type: functional, cell-based; settings: Homo sapiens
Description: SANGER: Inhibition of human ECC12 cell growth in a cell viability assay.

NCI-H838 = assay: cells; type: functional, cell-based; settings: Homo sapiens;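 further: growth inhibition of human NCI-H838 cells, read out by a cell viability assay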
Description: SANGER: Inhibition of human NCI-H838 cell growth in a cell viability assay.

NCI-H2196 = assay: cells; type: functional, cell-based; settings: Homo sapiens;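 further: cell viability assay used as the readout of growth inhibition in NCI-H2196 cells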
Description: SANGER: Inhibition of human NCI-H2196 cell growth in a cell viability assay.

TT = assay: cells; type: functional, cell-based; settings: Homo sapiens
Description: SANGER: Inhibition of human TT cell growth in a cell viability assay.

SK-CO-1 = assay: cells; type: functional, cell-based; settings: Homo sapiens;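 further: growth inhibition of SK-CO-1 cells, determined by a viability readout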
Description: SANGER: Inhibition of human SK-CO-1 cell growth in a cell viability assay.

PF-382 = assay: cells; type: functional, cell-based; settings: Homo sapiens
Description: SANGER: Inhibition of human PF-382 cell growth in a cell viability assay.

RL95-2 = assay: cells; type: functional, cell-based; settings: Homo sapiens;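 further: RL95-2 growth inhibition determined through a cell viability readout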
Description: SANGER: Inhibition of human RL95-2 cell growth in a cell viability assay.

SNU-C1 = assay: cells; type: functional, cell-based; settings: Homo sapiens;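 further: growth inhibition of SNU-C1 human cells, read out by a cell viability assay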
Description: SANGER: Inhibition of human SNU-C1 cell growth in a cell viability assay.

MRK-nu-1 = assay: cells; type: functional, cell-based; settings: Homo sapiens;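 further: cell viability assay measuring growth suppression of human MRK-nu-1 cells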
Description: SANGER: Inhibition of human MRK-nu-1 cell growth in a cell viability assay.

IST-SL2 = assay: cells; type: functional, cell-based; settings: Homo sapiens;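 further: growth inhibition of human IST-SL2 cells, read out by a cell viability assay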
Description: SANGER: Inhibition of human IST-SL2 cell growth in a cell viability assay.

HCT-15 = assay: cells; type: functional, cell-based, Homo sapiens; settings: Homo sapiens, HCT-15;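 further: cell viability readout, IC50 reflecting suppression of HCT-15 cell growth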
Description: SANGER: Inhibition of human HCT-15 cell growth in a cell viability assay.

Caov-3 cell line = assay: cells; type: functional, cell-based; settings: Homo sapiens;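 further: cell growth inhibition read out by a viability assay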
Description: SANGER: Inhibition of human Caov-3 cell growth in a cell viability assay.

Kasumi 1 = assay: cells; type: functional, cell-based; settings: Homo sapiens;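 further: growth inhibition of human Kasumi-1 cells, read out by a cell viability assay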
Description: SANGER: Inhibition of human KASUMI-1 cell growth in a cell viability assay.

MFE-296 = assay: SANGER: Inhibition of human MFE-296 cell growth in a cell viability assay.; type: functional, cell-based
L-540 = assay: cells; type: functional, cell-based; settings: Homo sapiens;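 further: growth inhibition of the human L-540 cell line, read out with a viability assay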
Description: SANGER: Inhibition of human L-540 cell growth in a cell viability assay.

YT = assay: cells; type: functional, cell-based; settings: Homo sapiens
Description: SANGER: Inhibition of human YT cell growth in a cell viability assay.

DV-90 = assay: cells; type: functional, cell-based; settings: Homo sapiens;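 further: Read-out is a viability assay, with IC50 reflecting the drop in DV-90 cell growth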
Description: SANGER: Inhibition of human DV-90 cell growth in a cell viability assay.

COLO 205 = assay: cells; type: functional, cell-based; settings: Homo sapiens
Description: SANGER: Inhibition of human COLO-205 cell growth in a cell viability assay.

NCI-H460 = assay: cells; type: functional, cell-based, Homo sapiens; settings: Homo sapiens, NCI-H460;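 further: cell viability assay scoring growth inhibition of human NCI-H460 cells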
Description: SANGER: Inhibition of human NCI-H460 cell growth in a cell viability assay.

EHEB = assay: cells; type: functional, cell-based; settings: Homo sapiens;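 further: growth inhibition of human EHEB cells, read out with a cell viability assay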
Description: SANGER: Inhibition of human EHEB cell growth in a cell viability assay.

ECC4 = assay: cells; type: functional, cell-based; settings: Homo sapiens;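 further: growth inhibition of ECC4 cells, read out with a cell viability assay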
Description: SANGER: Inhibition of human ECC4 cell growth in a cell viability assay.

NB1 = assay: cells; type: functional, cell-based; settings: Homo sapiens;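 further: reduction of NB1 cell proliferation, read out with a viability assay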
Description: SANGER: Inhibition of human NB1 cell growth in a cell viability assay.

NCI-H322M = assay: cells; type: functional, cell-based; settings: Homo sapiens;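 further: cell viability assay measuring inhibition of growth of human NCI-H322M cells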
Description: SANGER: Inhibition of human NCI-H322M cell growth in a cell viability assay.

IPC-298 = assay: SANGER: Inhibition of human IPC-298 cell growth in a cell viability assay.; type: functional, cell-based
UACC-812 = assay: cells; type: functional, cell-based; settings: Homo sapiens
Description: SANGER: Inhibition of human UACC-812 cell growth in a cell viability assay.

IMR-5 = assay: cells; type: functional, cell-based; settings: Homo sapiens;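 further: growth inhibition of human IMR-5 cells, read out with a cell viability assay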
Description: SANGER: Inhibition of human IMR-5 cell growth in a cell viability assay.

NCI-H1963 = assay: cells; type: functional, cell-based; settings: Homo sapiens
Description: SANGER: Inhibition of human NCI-H1963 cell growth in a cell viability assay.

EVSA-T = assay: cells; type: functional, cell-based, Homo sapiens; settings: Homo sapiens, EVSA-T;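 further: growth inhibition of EVSA-T cells, read out with a cell viability assay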
Description: SANGER: Inhibition of human EVSA-T cell growth in a cell viability assay.

SNU-475 = assay: cells; type: functional, cell-based; settings: Homo sapiens
Description: SANGER: Inhibition of human SNU-475 cell growth in a cell viability assay.

HCC1143 = assay: cells; type: functional, cell-based; settings: Homo sapiens;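 further: growth inhibition of human HCC1143 cells, read out with a cell viability assay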
Description: SANGER: Inhibition of human HCC1143 cell growth in a cell viability assay.

MDA-MB-468 = assay: cells; type: functional, cell-based; settings: Homo sapiens
Description: SANGER: Inhibition of human MDA-MB-468 cell growth in a cell viability assay.

CCF-STTG1 = assay: cells; type: functional, cell-based; settings: Homo sapiens;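 further: growth inhibition of human CCF-STTG1 cells, determined with a cell viability read-out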
Description: SANGER: Inhibition of human CCF-STTG1 cell growth in a cell viability assay.

NCI-H2227 = assay: cells; type: functional, cell-based; settings: Homo sapiens;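 further: growth inhibition of the human cell line, read out with a cell viability assay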
Description: SANGER: Inhibition of human NCI-H2227 cell growth in a cell viability assay.

TE-15 = assay: cells; type: functional, cell-based; settings: Homo sapiens;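 further: cell viability readout of growth inhibition in TE-15 cells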
Description: SANGER: Inhibition of human TE-15 cell growth in a cell viability assay.

CA46 = assay: cells; type: functional, cell-based; settings: Homo sapiens;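 further: growth inhibition of human CA46 cells, read out by a cell viability assay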
Description: SANGER: Inhibition of human CA46 cell growth in a cell viability assay.

OPM-2 = assay: cells; type: functional, cell-based; settings: Homo sapiens;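 further: growth of OPM-2 cells measured with a viability assay, IC50 for suppression of proliferation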
Description: SANGER: Inhibition of human OPM-2 cell growth in a cell viability assay.

BC1 cell line = assay: SANGER: Inhibition of human BC-1 cell growth in a cell viability assay.; type: functional, cell-based

In the case of `Cc1cnc(-c2cnc(NCCNc3ccc(C#N)cn3)nc2-c2ccc(Cl)cc2Cl)[nH]1` [LADUVIGLUSIB], the pIC50 (BL-41) was < 5.59, the pIC50 (IM-9) was < 5.59 and the pIC50 (SNG-M) was < 5.59. For the same molecule, the pIC50 (PLC-PRF-5) was < 5.59, the pIC50 (SIMA) was < 5.59 and the pIC50 (EFE-184) was < 5.59. For the same molecule, the pIC50 (NCI-H1618) was < 5.59, the pIC50 (CAL-148) was < 5.59 and the pIC50 (NCI-H345) was < 5.59. The pIC50 (RT-4) was < 5.59, the pIC50 (Calu-1) was < 5.59 and the pIC50 (NCI-H187) was < 5.59. For the same molecule, the pIC50 (NCI-H716) was < 5.59, the pIC50 (CHP-126) was < 5.59 and the pIC50 (LB647-SCLC) was < 5.59. For the same molecule, the pIC50 (ECC12) was < 5.59, the pIC50 (NCI-H838) was < 5.59 and the pIC50 (NCI-H2196) was < 5.59. The pIC50 (TT) was < 5.59, the pIC50 (SK-CO-1) was < 5.59 and the pIC50 (PF-382) was < 5.59. The pIC50 (RL95-2) was < 5.59, the pIC50 (SNU-C1) was < 5.59 and the pIC50 (MRK-nu-1) was < 5.59. For the same molecule, the pIC50 (IST-SL2) was < 5.59, the pIC50 (HCT-15) was < 5.59 and the pIC50 (Caov-3 cell line) was < 5.59. For the same molecule, the pIC50 (Kasumi 1) was < 5.59, the pIC50 (MFE-296) was < 5.59 and the pIC50 (L-540) was < 5.59. The pIC50 (YT) was < 5.59, the pIC50 (DV-90) was < 5.59 and the pIC50 (COLO 205) was < 5.59. For the same molecule, the pIC50 (NCI-H460) was < 5.59, the pIC50 (EHEB) was < 5.59 and the pIC50 (ECC4) was < 5.59. For the same molecule, the pIC50 (NB1) was < 5.59, the pIC50 (NCI-H322M) was < 5.59 and the pIC50 (IPC-298) was < 5.59. For the same molecule, the pIC50 (UACC-812) was < 5.59, the pIC50 (IMR-5) was < 5.59 and the pIC50 (NCI-H1963) was < 5.59. For the same molecule, the pIC50 (EVSA-T) was < 5.59, the pIC50 (SNU-475) was < 5.59 and the pIC50 (HCC1143) was < 5.59. For the same molecule, the pIC50 (MDA-MB-468) was < 5.59, the pIC50 (CCF-STTG1) was < 5.59 and the pIC50 (NCI-H2227) was < 5.59. For the same molecule, the pIC50 (TE-15) was < 5.59, the pIC50 (CA46) was < 5.59 and the pIC50 (OPM-2) was < 5.59. The pIC50 (BC1 cell line) was < 5.59.

`Cc1ccc(Nc2nccc(N(C)c3ccc4c(C)n(C)nc4c3)n2)cc1S(N)(=O)=O` [PAZOPANIB] was tested, and the pIC50 (BL-41) was < 5.10, the pIC50 (IM-9) was < 5.10 and the pIC50 (SNG-M) was 5.39. The pIC50 (PLC-PRF-5) was < 5.10, the pIC50 (SIMA) was < 5.10 and the pIC50 (EFE-184) was < 5.10. For the same molecule, the pIC50 (NCI-H1618) was < 5.10, the pIC50 (CAL-148) was < 5.10 and the pIC50 (NCI-H345) was < 5.10. For the same molecule, the pIC50 (RT-4) was < 5.10, the pIC50 (Calu-1) was < 5.10 and the pIC50 (NCI-H187) was < 5.10. The pIC50 (NCI-H716) was 5.64, the pIC50 (CHP-126) was < 5.10 and the pIC50 (LB647-SCLC) was < 5.10. The pIC50 (NCI-H838) was < 5.10, the pIC50 (NCI-H2196) was < 5.10 and the pIC50 (TT) was 5.25. For the same molecule, the pIC50 (SK-CO-1) was < 5.10, the pIC50 (PF-382) was < 5.10 and the pIC50 (SNU-C1) was < 5.10. The pIC50 (MRK-nu-1) was < 5.10, the pIC50 (IST-SL2) was < 5.10 and the pIC50 (HCT-15) was < 5.10. The pIC50 (Caov-3 cell line) was < 5.10, the pIC50 (MFE-296) was 6.23 and the pIC50 (L-540) was < 5.10. For the same molecule, the pIC50 (YT) was < 5.10, the pIC50 (DV-90) was < 5.10 and the pIC50 (COLO 205) was < 5.10. For the same molecule, the pIC50 (NCI-H460) was < 5.10, the pIC50 (EHEB) was < 5.10 and the pIC50 (ECC4) was < 5.10. The pIC50 (NB1) was < 5.10, the pIC50 (NCI-H322M) was < 5.10 and the pIC50 (IPC-298) was < 5.10. For the same molecule, the pIC50 (UACC-812) was < 5.10, the pIC50 (IMR-5) was < 5.10 and the pIC50 (NCI-H1963) was < 5.10. The pIC50 (EVSA-T) was < 5.10, the pIC50 (SNU-475) was < 5.10 and the pIC50 (HCC1143) was < 5.10. The pIC50 (MDA-MB-468) was < 5.10, the pIC50 (CCF-STTG1) was 5.98 and the pIC50 (NCI-H2227) was < 5.10. For the same molecule, the pIC50 (TE-15) was 5.14, the pIC50 (CA46) was < 5.10 and the pIC50 (OPM-2) was < 5.10. The pIC50 (BC1 cell line) was < 5.10.

`Cn1cncc1[C@@](N)(c1ccc(Cl)cc1)c1ccc2c(c1)c(-c1cccc(Cl)c1)cc(=O)n2C` [TIPIFARNIB] was tested, and the pIC50 (BL-41) was 5.56, the pIC50 (IM-9) was < 4.80 and the pIC50 (SNG-M) was 6.69. For the same molecule, the pIC50 (PLC-PRF-5) was < 4.80, the pIC50 (SIMA) was < 4.80 and the pIC50 (EFE-184) was 5.34. For the same molecule, the pIC50 (NCI-H1618) was < 4.80, the pIC50 (CAL-148) was 6.05 and the pIC50 (NCI-H345) was < 4.80. The pIC50 (RT-4) was 4.96, the pIC50 (Calu-1) was 6.74 and the pIC50 (NCI-H187) was < 4.80. For the same molecule, the pIC50 (NCI-H716) was < 4.80, the pIC50 (CHP-126) was < 4.80 and the pIC50 (LB647-SCLC) was < 4.80. The pIC50 (NCI-H838) was < 4.80, the pIC50 (NCI-H2196) was < 4.80 and the pIC50 (TT) was < 4.80. For the same molecule, the pIC50 (SK-CO-1) was 4.89, the pIC50 (PF-382) was 5.77 and the pIC50 (SNU-C1) was < 4.80. For the same molecule, the pIC50 (MRK-nu-1) was 5.95, the pIC50 (IST-SL2) was 4.87 and the pIC50 (HCT-15) was 6.49. For the same molecule, the pIC50 (Caov-3 cell line) was < 4.80, the pIC50 (MFE-296) was 5.84 and the pIC50 (L-540) was 5.32. The pIC50 (YT) was 5.78, the pIC50 (DV-90) was < 4.80 and the pIC50 (COLO 205) was 5.38. For the same molecule, the pIC50 (NCI-H460) was 5.31, the pIC50 (EHEB) was < 4.80 and the pIC50 (ECC4) was < 4.80. The pIC50 (NB1) was < 4.80, the pIC50 (NCI-H322M) was < 4.80 and the pIC50 (IPC-298) was 5.23. For the same molecule, the pIC50 (UACC-812) was < 4.80, the pIC50 (IMR-5) was < 4.80 and the pIC50 (NCI-H1963) was < 4.80. For the same molecule, the pIC50 (EVSA-T) was < 4.80, the pIC50 (SNU-475) was < 4.80 and the pIC50 (HCC1143) was 4.87. The pIC50 (MDA-MB-468) was < 4.80, the pIC50 (CCF-STTG1) was < 4.80 and the pIC50 (NCI-H2227) was < 4.80. The pIC50 (TE-15) was 6.44, the pIC50 (CA46) was 5.62 and the pIC50 (OPM-2) was < 4.80. For the same molecule, the pIC50 (BC1 cell line) was 6.89.
